The text below walks through data of patent publication US20090325964A1, “Piperazine Metabotropic Glutamate Receptor 5 (MGLUR5) Negative Allosteric Modulators For Anxiety/Depression” (Wyeth, priority 2008, published 2009).

For one assay, the target named is T1, rat mGluR5 receptor (Rattus norvegicus, UniProt P31424).
T1 construct: expressed in transfected cells; host or cells: HEK-293
Briefly: [3H]-MPEP displacement binding assay, HEK-293 cell membranes expressing rat mGluR5. Particulars: [3H]-MPEP displacement, rat mGluR5 membranes; read-out: Median Ki. A digest of the protocol:
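Membranes from HEK-293 cells expressing rat mGluR5 (12-25 μg protein), incubated 60 min at room temperature with 4 nM [3H]-MPEP in 50 mM Tris pH 7.5, then filtered. Nonspecific binding defined with 10 μM MPEP.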

Another assay addresses mGluR5 (Rattus norvegicus, UniProt P31424). Briefly: IC50 column under 'Biological Activity' (assay not identified in the shown text; not the binding Ki).

The structures appear in SMILES notation.

Sequence of mGluR5 (P31424 21-1203): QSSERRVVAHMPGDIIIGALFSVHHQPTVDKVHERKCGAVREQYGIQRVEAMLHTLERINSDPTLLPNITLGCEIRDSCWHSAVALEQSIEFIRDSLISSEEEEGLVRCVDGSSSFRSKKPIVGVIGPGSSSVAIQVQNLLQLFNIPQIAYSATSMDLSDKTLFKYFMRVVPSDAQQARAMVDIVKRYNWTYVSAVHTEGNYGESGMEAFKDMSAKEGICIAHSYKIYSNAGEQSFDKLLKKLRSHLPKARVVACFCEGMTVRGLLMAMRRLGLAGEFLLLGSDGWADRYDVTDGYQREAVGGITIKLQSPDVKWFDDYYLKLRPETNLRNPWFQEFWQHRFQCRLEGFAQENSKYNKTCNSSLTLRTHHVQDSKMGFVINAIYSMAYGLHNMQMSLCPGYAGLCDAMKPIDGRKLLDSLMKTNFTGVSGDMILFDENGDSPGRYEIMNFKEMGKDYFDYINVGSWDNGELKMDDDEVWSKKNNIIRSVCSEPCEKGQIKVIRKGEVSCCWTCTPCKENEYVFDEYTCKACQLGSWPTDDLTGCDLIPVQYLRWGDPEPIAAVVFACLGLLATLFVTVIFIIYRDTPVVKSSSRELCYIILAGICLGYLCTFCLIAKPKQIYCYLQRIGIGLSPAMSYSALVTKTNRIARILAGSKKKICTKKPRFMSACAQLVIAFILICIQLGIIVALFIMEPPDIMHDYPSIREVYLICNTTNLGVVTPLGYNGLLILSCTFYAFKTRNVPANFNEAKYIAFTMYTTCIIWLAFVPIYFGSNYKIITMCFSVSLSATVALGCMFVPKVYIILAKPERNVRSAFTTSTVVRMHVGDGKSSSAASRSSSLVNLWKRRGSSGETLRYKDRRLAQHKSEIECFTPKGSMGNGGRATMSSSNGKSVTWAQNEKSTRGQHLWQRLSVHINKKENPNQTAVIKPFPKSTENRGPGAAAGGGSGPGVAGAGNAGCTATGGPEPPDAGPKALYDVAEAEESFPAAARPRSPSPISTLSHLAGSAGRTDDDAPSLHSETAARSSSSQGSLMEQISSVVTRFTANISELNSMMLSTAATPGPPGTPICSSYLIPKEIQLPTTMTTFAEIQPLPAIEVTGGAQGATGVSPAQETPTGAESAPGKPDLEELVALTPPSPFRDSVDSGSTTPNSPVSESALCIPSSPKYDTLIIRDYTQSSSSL
T1 sequence (P31424 21-1203): as above

With `O=C(c1ccc(Cl)c(C#Cc2ccccn2)c1)N1CCN(c2cnccn2)CC1` [Compound 388, 2-{4-[4-chloro-3-(pyridin-2-ylethynyl)benzoyl]piperazin-1-yl}pyrazine], at rat mGluR5 receptor, the Ki came to 13 nM. On mGluR5, this compound showed a half-maximal inhibitory concentration (IC50) of 94 nM.

For `N#Cc1cccnc1N1CCN(C(=O)c2ccc(Cl)c(C#Cc3ccccn3)c2)CC1` [Compound 389, 2-{4-[4-chloro-3-(pyridin-2-ylethynyl)benzoyl]piperazin-1-yl}nicotinonitrile], on rat mGluR5 receptor, the Ki amounted to 63 nM. The IC50 on mGluR5 worked out at 239 nM.

`O=C(c1ccc(Cl)c(C#Cc2ccccn2)c1)N1CCN(c2nccs2)CC1` [Compound 390, 1-[4-chloro-3-(pyridin-2-ylethynyl)benzoyl]-4-(1,3-thiazol-2-yl)piperazine]: the Ki on rat mGluR5 receptor came out at 7 nM. The compound further returned an IC50 at mGluR5 of 39 nM.

Consider `O=C(c1ccc(Cl)c(C#Cc2ccccn2)c1)N1CCN(c2ccncc2)CC1` [Compound 391, 1-[4-chloro-3-(pyridin-2-ylethynyl)benzoyl]-4-pyridin-4-ylpiperazine], for which, on rat mGluR5 receptor, the inhibition constant (Ki) came to 79 nM. Besides, the IC50 at mGluR5 was determined as 1490 nM.

Consider `O=C(c1ccc(Cl)c(C#Cc2ccccn2)c1)N1CCN(c2cccc(O)c2)CC1` [Compound 393, 3-(4-{[4-chloro-3-(pyridin-2-ylethynyl)phenyl]carbonyl}piperazin-1-yl)phenol], for which, at rat mGluR5 receptor, the Ki was 12 nM. At mGluR5, this compound registered an IC50 of 144 nM.

As to `O=C(c1ccc(Cl)c(C#Cc2ccccn2)c1)N1CCN(c2ncccc2Cl)CC1` [Compound 394, 1-(3-chloropyridin-2-yl)-4-{[4-chloro-3-(pyridin-2-ylethynyl)phenyl]carbonyl}piperazine], at rat mGluR5 receptor, the Ki amounted to 21 nM. In addition, the IC50 on mGluR5 was 145 nM.

On to `COc1cccc(N2CCN(C(=O)c3ccc(Cl)c(C#Cc4ccccn4)c3)CC2)c1` [Compound 395, 1-{[4-chloro-3-(pyridin-2-ylethynyl)phenyl]carbonyl}-4-(3-methoxyphenyl)piperazine], for which the Ki on rat mGluR5 receptor is 19 nM. Moreover, the IC50 at mGluR5 stood at 113 nM.

As to `N#Cc1nccnc1N1CCN(C(=O)c2ccc(Cl)c(C#Cc3ccccn3)c2)CC1` [Compound 396, 3-(4-{[4-chloro-3-(pyridin-2-ylethynyl)phenyl]carbonyl}piperazin-1-yl)pyrazine-2-carbonitrile], the inhibitory constant (Ki) on rat mGluR5 receptor turned out to be 17 nM. The compound also displayed a half-maximal inhibitory concentration (IC50) on mGluR5 of 47 nM.

Usually Ki stands for the equilibrium dissociation constant of an inhibitor or competing ligand from its target. Usually IC50 stands for the point on the concentration scale where inhibition reaches its midpoint. A low value points to greater potency.
